Measured values reported in paper PMC7395068, “The evolution of strategies to minimise the risk of human drug-induced liver injury (DILI) in drug discovery and development” (Archives of Toxicology, 2020).
Read-outs that look alike come from different tables or passages of the source.

Experiments:
[1] = Plasma free fraction (fu) and unbound Cmax (Cmax,u); format: in vitro ADME, human; details: unbound plasma Cmax
[2] = cited from earlier work
[3] = test system: primary human hepatocytes, NIH3T3 fibroblasts, BSEP, CYP3A4; details: cited from earlier work
HepG2 cells [4] = details: In vitro Assay; ref O'Brien 2006; cited from earlier work
HepG2 cells [5] = details: cited from earlier work
HepG2 cells [6] = details: cited from earlier work; remark: listed apart in the source
human hepatocytes = details: In vitro Assay; ref Xu 2008; cited from earlier work
[7] = test system: THLE or HepG2 cells, isolated mitochondria, BSEP; details: cited from earlier work
PHH = details: cited from earlier work
hLiMTs [8] = details: cited from earlier work
PHH spheroids = details: cited from earlier work
[9] = test system: HepG2 C3A spheroid, BSEP, Glu/Gal in HepG2 cells, bioactivation; details: cited from earlier work
[10] = cited from earlier work; remark: listed apart in the source
[11] = plasma free fraction; cited from earlier work
[12] = cited from earlier work; remark: listed apart in the source
[13] = test system: THLE-Null and THLE-3A4 cells; details: In vitro Assay; ref Gustafsson 2014; cited from earlier work
[14] = test system: HepG2 cells, primary human hepatocytes; details: In vitro Assay; ref Garside 2014; cited from earlier work
[15] = test system: isolated mouse liver mitochondria; details: In vitro Assay; ref Porceddu 2012; cited from earlier work
Upcyte human hepatocytes = details: In vitro Assay; ref Tolosa 2019; cited from earlier work
[16] = ref Chen 2011; cited from earlier work
rBsep = details: In vitro Assay; ref Dawson 2012; cited from earlier work
hLiMTs [17] = assay: Combined HCI (HCS) and cellular ATP 3D assay in hLiMTs; details: for AC50 / minimal effective concentration: Homo sapiens
HepaRG spheroids = assay: Combined HCI (HCS) and cellular ATP 3D assay in HepaRG spheroids; details: for AC50 / minimal effective concentration: Homo sapiens
[18] = In vitro Assay, ref Schadt 2015
[19] = In vitro Assay, ref Persson 2013
[20] = Modeled in vitro assays (cytotoxicity, mitochondrial dysfunction, BSEP), ref Aleo et al. 2019
[21] = In vitro Assay, ref Proctor 2017
[22] = Microtissue model structural based (HCI), combined HCS and ATP, MEC < 25 × Cmax.tot cut-off

Human plasma Cmax,u [1]: 0.272 µM | hLiMTs <25x Avg Cmax ATP (hLiMTs [17]; hLiMTs, ATP endpoint, cut-off <25x Avg Cmax): +ve | hLiMTs <100x Avg Cmaxu ATP (hLiMTs [17]; hLiMTs, ATP endpoint, cut-off <100x Avg Cmaxu): +ve (<100x Avg Cmaxu) | hLiMTs <25x Avg Cmax HCS (hLiMTs [17]; hLiMTs, HCS endpoints, cut-off <25x Avg Cmax): +ve | hLiMTs <100x Avg Cmaxu HCS (hLiMTs [17]; hLiMTs, HCS endpoints, cut-off <100x Avg Cmaxu): +ve (<100x Avg Cmaxu) | hLiMTs <25x Avg Cmax All (hLiMTs [17]; hLiMTs, all endpoints (ATP and HCS), cut-off <25x Avg Cmax): +ve | hLiMTs Cmax max All (hLiMTs [17]; hLiMTs, all endpoints, Cmax max used): +ve | hLiMTs Cmax min All (hLiMTs [17]; hLiMTs, all endpoints, Cmax min used): +ve | hLiMTs <10 uM All (hLiMTs [17]; hLiMTs, all endpoints, cut-off <10 uM): +ve (<10 uM) | hLiMTs <100x Avg Cmaxu All (hLiMTs [17]; hLiMTs, all endpoints, cut-off <100x Avg Cmaxu): +ve (<100x Avg Cmaxu) | HepaRG <25x Avg Cmax ATP (HepaRG spheroids; HepaRG, ATP endpoint, cut-off <25x Avg Cmax): +ve | HepaRG <100x Avg Cmaxu ATP (HepaRG spheroids; HepaRG, ATP endpoint, cut-off <100x Avg Cmaxu): +ve (<100x Avg Cmaxu) | HepaRG <25x Avg Cmax HCS (HepaRG spheroids; HepaRG, HCS endpoints, cut-off <25x Avg Cmax): +ve | HepaRG <100x Avg Cmaxu HCS (HepaRG spheroids; HepaRG, HCS endpoints, cut-off <100x Avg Cmaxu): +ve (<100x Avg Cmaxu) | HepaRG <25x Avg Cmax All (HepaRG spheroids; HepaRG, all endpoints (ATP and HCS), cut-off <25x Avg Cmax): +ve | HepaRG Cmax max All (HepaRG spheroids; HepaRG, all endpoints, Cmax max used): +ve | HepaRG Cmax min All (HepaRG spheroids; HepaRG, all endpoints, Cmax min used): +ve | HepaRG <10 uM All (HepaRG spheroids; HepaRG, all endpoints, cut-off <10 uM): +ve (<10 uM) | HepaRG <100x Avg Cmaxu All (HepaRG spheroids; HepaRG, all endpoints, cut-off <100x Avg Cmaxu): +ve (<100x Avg Cmaxu)
Structure (SMILES): CC(C)C(=O)Nc1ccc([N+](=O)[O-])c(C(F)(F)F)c1 [flutamide, reference compound]
DILI severity category (Chen et al. [2016]) ([2]; LTKB DILIrank category, ref Chen et al. 2016): Most | DILI severity category (Chen 2016) ([2]; human DILI classification, LTKB DILIrank, ref Chen et al. 2016): Most | DILI severity category ([2]; human DILI severity, ref Chen et al.): Most | DILI +VE (5-8), DILI -VE (-4) ([2]; ref Chen 2016): +VE | DILI severity category ([2]; ref Chen 2016): vMost-DILI-Concern | DILI in vitro assay prediction, Schadt (2015) ([3]; BSEP & Metabolism based, ref Schadt et al. 2015): +VE | Cellular toxicity (3T3 cells) [3, 18]: -VE | Combined Assay [3, 18]: +VE | GSH adduct HML [3, 18]: +VE | Hepatocyte cellular toxicity [3, 18]: -VE | MitoTox 3T3 [3, 18]: +VE | TDI CYP3A4 [3, 18]: -VE | hBSEP inhibition [3, 18]: -VE | Structural based (HCI) (HepG2 cells [4]): +VE | Cluser analysis (HepG2 cells [5]; [19]): -VE | Structural based (HCI) (HepG2 cells [5]; [19]): -VE | DILI in vitro assay prediction, Persson (2013) (HepG2 cells [5]; Structural based (HCI), HepG2, ref Persson et al. 2013): -VE | Structural based (HCI) (HepG2 cells [6]; In vitro Assay, ref Tolosa 2012): +VE | DILI in vitro assay prediction, Tolosa (2012) (HepG2 cells [6]; Structural based (HCI), HepG2, ref Tolosa et al. 2012): +VE | Structural based (HCI) (human hepatocytes): -VE | Partition Hybrid HRM Score ([7]; In vitro Assay, ref Aleo 2019): +VE | Ro2 Hybrid HRM Score ([7]; In vitro Assay, ref Aleo 2019): +VE | Partition Hybrid HRM Score ≥4, Aleo (2019) [7, 20]: +VE (Partition Hybrid HRM Score ≥4) | Partition Hybrid HRM Score ≥8, Aleo (2019) [7, 20]: +VE (Partition Hybrid HRM Score ≥8) | Rule of Two hybrid HRM Score ≥3, Aleo (2019) [7, 20]: +VE (Rule of Two hybrid HRM Score ≥3) | Rule of Two hybrid HRM Score ≥8, Aleo (2019) [7, 20]: +VE (Rule of Two hybrid HRM Score ≥8) | PHH/100xCmax, Proctor (2017) (PHH; 2D PHH, ATP, IC50 < 100 × Cmax.tot, ref Proctor et al. 2017): +VE (IC50 < 100 × Cmax.tot) | PHH/100uM, Proctor (2017) (PHH; 2D PHH, ATP, IC50 threshold 100 µM, ref Proctor et al. 2017): +VE (IC50 threshold of 100 µM) | PHH ATP <100uM (PHH; [21]): +VE (IC50 threshold of 100 µM) | hLiMTs ATP <100uM (hLiMTs [8]; [21]): +VE (IC50 threshold of 100 µM) | hLiMTs/100xCmax, Proctor (2017) (hLiMTs [8]; hLiMTs, ATP, IC50 < 100 × Cmax.tot, ref Proctor et al. 2017): +VE (IC50 < 100 × Cmax.tot) | hLiMTs/100uM, Proctor (2017) (hLiMTs [8]; hLiMTs, ATP, IC50 threshold 100 µM, ref Proctor et al. 2017): +VE (IC50 threshold of 100 µM) | hLiMTs ATP <20 x Cmax (PHH spheroids; In vitro Assay, ref Vorrink 2018): +VE (IC20 < 20 × Cmax.tot cut-off) | DILI in vitro assay prediction, Vorrink (2018) (PHH spheroids; PHH spheroids, ATP, 14 days, IC20 < 20 × Cmax.tot, ref Vorrink et al. 2018): +VE (IC20 < 20 × Cmax.tot cut-off) | Bayesian Machine Learning DILI prediction, Williams (2019) ([9]; Bayesian modeling, ref Williams et al. 2019): +VE | Bayesian Machine Learning ([9]; In vitro Assay, ref Williams 2019): +VE | Cmax ([10]; read-out: Cmax.tot, value used for normalisation, ref O'Brien et al. 2006): 6 µM | Cmax ([10]; read-out: Cmax.tot, value used for normalisation, ref Xu et al. 2008): 0.36 µM | Cmax ([10]; read-out: Human plasma Cmax, total plasma Cmax.tot, median of 9 literature references): 5.43 µM | fu [11]: 0.050 | Assigned DILI category ([12]; Chen et al. 2016 or literature alignment, ref Chen et al. 2016): 3 | In vivo DILI ([12]; […]): +VE | In vivo DILI ([12]; ref Aleo 2019): +VE | In vivo DILI ([12]; ref Dawson 2012): +VE | In vivo DILI ([12]; ref Garside 2014): +VE | In vivo DILI ([12]; ref Gustafsson 2014): +VE | In vivo DILI ([12]; ref O'Brien 2006): +VE | In vivo DILI ([12]; ref Persson 2013): +VE | In vivo DILI ([12]; ref Porceddu 2012): -VE | In vivo DILI ([12]; ref Proctor 2017): +VE | In vivo DILI ([12]; ref Schadt 2015): +VE | In vivo DILI ([12]; ref Tolosa 2012): +VE | In vivo DILI ([12]; ref Tolosa 2019): +VE | In vivo DILI ([12]; ref Vorrink 2018): +VE | In vivo DILI ([12]; ref Williams 2019): +VE | In vivo DILI ([12]; ref Xu 2008): +VE | THLE-Null [13]: -VE | THLE-Null/3A4 [13]: -VE | Cluster 1-6 +VE Assay [14]: +VE | in vitro data EC2<=1x Cmax [15]: +VE | in vitro data EC20<=2uM [15]: -VE | Upcytes multi donor assay 14day data (Upcyte human hepatocytes): +VE | DILI Score (FDA) (1-8) [16]: 8 | Inhibition of rBsep cutoff<1& cmax u>.2 (rBsep): +VE | Inhibition of rBsep cutoff<3 (rBsep): +VE | AC50 (hLiMTs [17]; read-out: ATP endpoint AC50): 29.9 µM | minimal effective concentration (hLiMTs [17]; read-out: ATP endpoint MEC): 18.5 µM | AC50 (hLiMTs [17]; read-out: HCS endpoint AC50): 43.5 µM | minimal effective concentration (hLiMTs [17]; read-out: HCS endpoint MEC): 3.63 µM | DILI prediction hLiMTs (HCS-MEC) (hLiMTs [17]; [22]): +VE (MEC < 25 × Cmax.tot cut-off) | AC50 (HepaRG spheroids; HepaRG, read-out: ATP endpoint AC50): 14.9 µM | minimal effective concentration (HepaRG spheroids; HepaRG, read-out: ATP endpoint MEC): 7.75 µM | AC50 (HepaRG spheroids; HepaRG, read-out: HCS endpoint AC50): 42.7 µM | minimal effective concentration (HepaRG spheroids; HepaRG, read-out: HCS endpoint MEC): 13.9 µM | DILI prediction HepaRG spheroids (HCS-MEC) (HepaRG spheroids; [22]): +VE (MEC < 25 × Cmax.tot cut-off)
